Results: patent publication US6573050B1, “Treatment, diagnosis and evaluation of anti-cancer therapy resistance in melanoma” (Sunnybrook & Women's College Health Sciences Centre, priority 1999, dated 2003)
Like-named read-outs stand apart in the source and are kept apart here.

Experiments:
[1] = system: Clone E and Clone G cells vs WM35 cells
Method: (§8) Cytotoxicity Assay. The number of viable cells following a treatment was assessed using the CellTiter™ 96 Aqueous Non-Radioactive MTS Cell Proliferation Assay (Promega). Briefly, 1×10^4 cells/well were plated in 96-well plates, allowed to attach overnight and then administered therapeutic agents at various levels for 24 hours. Four hours prior to harvest, MTS/phenazine methosulfate was added to the cells and the number of variable cells was determined by measuring the quantity of formazan by spectrophotometric analysis at 490 nm.
(§9) The indicated cell lines were cultured in 96 well plates at a density of 8×10^3 cells per well and treated for 24 hours with either A) carboplatin; B) taxol; or C) methotrexate, at the indicated concentrations. Cell viabilities were determined using the MTS assay (Promega), measuring the cellular conversion of the tetrazolium salt, MTS, into formula which can be quantified at 490 nm.

[2] = system: WM35 cells; test: MTS cytotoxicity assay, CDDP treatment; type: cell-based, human; conditions: 15 μM CDDP, 24 hour incubation, mean ± SEM, n=3
Method: (§1) Cells and Culture Conditions. All human melanoma cell lines were generously provided by Dr. Meenhard Herlyn (Wistar Institute, Philadelphia, Pa.). The CDDP-resistant variants of WM35 (designated as Clone A to Clone I) were established by retroviral insertioual mutagenesis of WM35 cells as described previously (Lu et al. (1995) Cancer Res. 55:1139-1145). Cells were routinely maintained in RPMI 1640 (Life Technologies) supplement with 5% FBS (Life Technologies) at 37° C. in a humidified atmosphere of 95% air; 5% CO2.
(§2) To determine the correlation between levels of TYRP2 expression and CDDP resistance, the cells assessed in the UV(B) survival assay as shown in Table 2 were further assessed for resistance to CDDP. Cells were plated in 96-well plates and treated with 15 μM CDDP. After a 24 hour incubation, cell viability was determined by the MTS assay.

[3] = system: MeWo derived tumors; test: MeWo tumors in immunodeficient CD-1 nude mice, CDDP treatment; type: in vivo; conditions: CDDP 2 mg/kg/2 days
Method: (§3) In order to determine the significance of TYRP2-mediated CDDP resistance in vivo, tumors were generated in immunodeficient CD-1 mice by subcutaneous injection of 2×10^6 cells of either MeWo or WM9. WM35 cells were not used for in vivo studies because they lack tumorigenicity (Bani et al. (1996) Cancer Res. 56:3075-3086). […] Mice bearing these tumors were treated with CDDP three times weekly at a dose of 2 mg/kg.
FIG. 12 illustrates the correlation between TYRP2 expression and CDDP resistance in vivo. Tumors were generated in immunodeficient CD-1 nude mice by subdermally injecting MeWo cells.

[4] = system: Clone E and Clone G cells vs WM35 cells; test: CDDP resistance of retrovirally derived clones compared to parental WM35; type: cell-based, human; conditions: approximately
Method: as §1
This technique of retroviral insertional mutagenesis was applied on WM35 cells, an early stage CDDP sensitive human melanoma cell line. WM35 cells were infected with a replication defective amphotrophic murine stein cell virus (MSCV) retrovirus and the pooled cells were subsequently selected for CDDP resistance.
From this technique, nine independently derived clones, Clone A to Clone I, were obtained. […] Since changes in tumor sensitivities in the range of 2-5 fold can account for loss of tumor responsiveness to anti-cancer therapeutic drugs, this difference could be clinically significant (Kuroda et al. (1991) Int. J. Cancer 47:732-737).

[5] = system: WM373 cells; test: MTS cytotoxicity assay, CDDP treatment; type: cell-based, human; conditions: 15 μM CDDP, 24 hours, MTS assay (FIG. 9)
Method: as §1
(§4) FIG. 9 illustrates the response of melanoma cell lines to CDDP treatment. Each of the cell lines indicated were plated in 96-well plates at a density of 1×10^5 cells/well and treated with 15 μM CDDP for 24 hours. Percentage of viable cells were determined by the MTS assay. […] The levels TYRP2 expression in these cells directly correlated with their resistance to CDDP treatment (15 μM CDDP, 24 hours). For example, the cell line WM9, which expresses very low levels of TYRP2 was very sensitive to CDDP treatment (<20% of cells survived). Conversely, the cell lines WM451 and MeWo, for example, which express high levels of TYRP2 were resistant to CDDP treatment (approximately 80% of cells survived).

[6] = system: 1552C cells; test: MTS cytotoxicity assay, CDDP treatment; type: cell-based, human; conditions: 15 μM CDDP, 24 hours, MTS assay (FIG. 9)
Method: as §1, §4

[7] = system: WM451 cells; test: MTS cytotoxicity assay, CDDP treatment; type: cell-based, human; conditions: 15 μM CDDP, 24 hours, MTS assay (FIG. 9)
Method: as §1, §4

[8] = system: WM1341B cells; test: MTS cytotoxicity assay, CDDP treatment; type: cell-based, human; conditions: 15 μM CDDP, 24 hours, MTS assay (FIG. 9)
Method: as §1, §4

[9] = system: WM35 cells vs Clone E cells; test: DNA fragmentation assay, Cell Death Detection ELISA; type: cell-based, human; conditions: 15 μM CDDP, 18 hours
Method: DNA Fragmentation Assay. Levels of apoptosis were determined by quantifying DNA fragmentation using the Cell Death Detection ELISA Plus kit (Boehringer Mannheim). Briefly, cells were plated in 96-well plates at a density of 1×10^4 cells/well and allowed to attach overnight. Cells were treated with 15 μM CDDP for 18 hours and then lysed. Cell lysates were transferred to streptavidin-coated plates and used for ELISA analysis using anti-bistone-biotin and anti-DNA POD antibodies.
FIG. 2 illustrates DNA fragmentation analysis by ELISA using antibodies that recognize mono- and oligonucleotide fragments. Mono- and oligo-nucleosomes in the DNA of WM35 cells treated with 15 μM CDDP for 18 hours, were detected with a Cell Death ELISA Detection Kit (Boehringer Mannheim). The production of DNA 180 bp multimers was approximately 5 times greater in WM35 cells than in Clone E cells.

[10] = system: XR9 cells (x-ray resistant variant of WM35); test: MTS cytotoxicity assay, CDDP treatment; type: cell-based, human; conditions: 15 μM CDDP, 24 hour incubation, mean ± SEM, n=3
Method: Gamma radiation resistant mutant cell lines were selected using retroviral insertional mutagenesis, with selection based on resistance to gamma radition. X-ray resistant mutant cell lines, designated as “XR” were established.
as §2

[11] = system: MeWo cells; test: MTS cytotoxicity assay, CDDP treatment; type: cell-based, human; conditions: 15 μM CDDP
Method: as §1, §4, §2

[12] = system: WM9 cells; test: MTS cytotoxicity assay, CDDP treatment; type: cell-based, human; conditions: 15 μM CDDP
Method: as §1, §4, §2

[13] = system: Clone E cells (CDDP-resistant variant of WM35); test: MTS cytotoxicity assay, CDDP treatment; type: cell-based, human; conditions: 15 μM CDDP
Method: as §1, §4, §2

[14] = system: WM9 derived tumors; test: WM9 tumors in immunodeficient CD-1 nude mice, CDDP treatment; type: in vivo; conditions: CDDP 2 mg/kg/2 days
Method: as §3
FIG. 13 illustrates the correlation between TYRP2 expression and CDDP resistance in vivo in WM9 cells. Tumors were generated in immunodeficient CD-1 nude mice by subdermally injecting WM9 cells. […] By day 18 of treatment, the tumors in 2 of 5 mice had completely disappeared.

[15] = system: WM35 cells; test: PARP cleavage, Western blot (apoptosis); type: cell-based, human; conditions: 15 μM CDDP, as early as
Method: (§5) SDS-PAGE and Western Blot Analysis. Cell lysates were prepared using lysis buffer consisting of 50 mM Tris, pH 7.4, 50 mM NaCl, 2 mM MgCl2, 1 mM EDTA, 05% IDEPAL CA-630 and protease inhibitors (0.1 mM PMSF, 100 μM sodium vanadate, 20 μg/ml leupeptin, 20 mM […], 1 mM benzamide). Protein concentrations were determined by the Bradford assay (BioRad Laboratories) and equivalent quantities of protein (25 μg) were resolved by SDS-polyacrylamide gel electrophoresis (Laemmli (1970) Nature, 227, 680-685). […] Membranes were then incubated with a horseradish-peroxidase conjugated goat anti-rabbit antibody (1:5000 dilution) and immunoreactive sites were detected by enhanced chemiluminescence (Amersham). […]
(§6) The mechanism of action of CDDP, as well as other DNA alkylating agents ultimately involves generation of DNA damage and subsequently the induction of apoptosis. In order to determine if the increased resistance to CDDP in the retrovirally derived clones was associated with a reduction in CDDP-induced apoptosis, the levels of apoptosis in one of these clones (Clone E) relative to its parental WM35 cells were determined following treatment with 15 μM CDDP.
(§7) Increased cleavage of poly-ADP-ribose-polymerase (PARP) from the 116 kDa to the smaller 84 kDa subunit in WM35 cells was detected as early as 6 bours following 15 μM CDDP treatment. […]

[16] = system: Clone E cells; test: PARP cleavage, Western blot (apoptosis); type: cell-based, human; conditions: 15 μM CDDP, up to 24 hours
Method: as §5, §6, §7

[17] = system: Clone E and Clone G cells vs WM35 cells; test: Cross resistance of CDDP-resistant clones, MTS assay; conditions: 24 hours treatment, various concentrations, MTS assay (FIG. 3)
Method: as §8, §9

[18] = 24 hour incubation, MTS assay, mean ± SEM, n=3

## CC(=O)O[C@H]1C(=O)[C@@]2(C)[C@H]([C@H](OC(=O)c3ccccc3)[C@]3(O)C[C@H](OC(=O)[C@H](O)[C@@H](NC(=O)c4ccccc4)c4ccccc4)C(C)=C1C3(C)C)[C@]1(OC(C)=O)CO[C@@H]1C[C@@H]2O [taxol]
[1]
  resistance of Clone E and Clone G to cytotoxic effects compared to WM35 cells: equally sensitive

## N.N.[Cl][Pt][Cl] [CDDP, cis-diamminedichloroplatinum(II)]
[2]
  % Survival: 52.6 ± 4.4%
[3]
  growth rates of tumors, CDDP treated vs saline treated mice: did not differ
[4]
  increase in CDDP resistance compared to parental WM35 cells: 2 to 3 fold
[5]
  survival compared to WM35 cells: substantially higher survival
[6]
  sensitivity to CDDP treatment: highly sensitive
[7]
  % of cells survived: approximately 80%
[8]
  survival compared to WM35 cells: substantially higher survival
[9]
  production of DNA 180 bp multimers, WM35 cells relative to Clone E cells: approximately 5 times
[10]
  % Survival: 82.4 ± 1.7%
[11]; [18]
  % Survival: 77.0 ± 5.3%
[11]; 24 hours, MTS assay (FIG. 9)
  % of cells survived: approximately 80%
[12]; [18]
  % Survival: 13.8 ± 1.6%
[12]; 24 hours, MTS assay (FIG. 9)
  % of cells survived: < 20%
[13]; [18]
  % Survival: 77.4 ± 6.7%
[13]; 24 hours, MTS assay (FIG. 9)
  survival compared to WM35 cells: substantially higher survival
[14]
  growth rates of tumors relative to saline treated controls: significant reduction in growth rates
[14]; by day 18 of treatment
  mice whose tumors had completely disappeared: 2 of 5
[15]
  time at which increased PARP cleavage (116 kDa to 84 kDa subunit) was detected: 6 bours
[16]
  increased levels of PARP cleavage: not evident

## N.N.O=C([O-])C1(C(=O)[O-])CCC1.[Pt+2] [carboplatin]
[17]
  resistance of Clone E and Clone G to cytotoxic effects compared to WM35 cells: more resistant

## CN(Cc1cnc2nc(N)nc(N)c2n1)c1ccc(C(=O)N[C@@H](CCC(=O)O)C(=O)O)cc1 [methotrexate]
[1]
  resistance of Clone E and Clone G to cytotoxic effects compared to WM35 cells: more resistant
